For one assay, the target named is T1, human DGKα (Homo sapiens, UniProt P23743).
T1 construct: TVMV protease cleavage site (C); Hexa-His (C); made in house; host or cells: Sf9 insect cells (baculovirus, Bac-to-Bac)
As to the kind of experiment: DGKα LIPGLO assay (extruded liposome substrate), in vitro DGK inhibition. It counts as biochemical. Particulars: read-out: DGKa LIPGLO IC50.

The subject of a further assay is naïve human CD8 T cells. The assay is described as follows: Human CD8 T cells IFN-γ assay.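 Further: Naïve human CD8 T cells stimulated with plate-bound anti-CD3 and soluble anti-CD28, IFN-γ in supernatant quantified by AlphaLISA and converted to pg/mL.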 It counts as cell-based. To be noted: read-out: HuCD8 INFG Normalized EC50.
The next assay has as its target T2, human DGKζ (Homo sapiens, UniProt Q13574).
T2 construct: TVMV protease cleavage site (C); Hexa-His (C); made in house; host or cells: Sf9 insect cells (baculovirus, Bac-to-Bac)
As to the kind of experiment: DGKζ LIPGLO assay (extruded liposome substrate), in vitro DGK inhibition. It counts as biochemical. Particulars: read-out: DGKz LIPGLO IC50.

A further assay relates to Human venous whole blood. As to the kind of experiment: Human whole blood IFN-γ assay.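 Further: blood from healthy donors exposed to compound for 1 h before stimulation with anti-CD3 and anti-CD28 at 1 µg/mL each, IFN-γ quantified in supernatant by AlphaLISA.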 The format is cell-based. To be noted: human whole blood, read-out: INFg Whole Blood Normalized Agonist EC50.
[1] abbreviates: Homo sapiens, T-cell, 20 h, normalized to 3 μM reference compound with anti-CD3 plus anti-CD28 as 100% activation.
Where [2] appears, read: Homo sapiens, 24 h, normalized to 3 μM reference compound with anti-CD3 plus anti-CD28 as 100% activation.
Where [3] appears, read: normalized to 3 μM reference compound with anti-CD3 plus anti-CD28 as 100% activation.
[4] abbreviates: Homo sapiens, T-cell, 20 h, naïve human CD8 T cells, anti-CD3 plus anti-CD28, 3 μM reference compound = 100% activation.
Where [5] appears, read: anti-CD3 plus anti-CD28, 24 hours, 3 μM reference compound = 100% activation.

Read-outs that look alike come from different tables or passages of the source.

What is called IC50 is the concentration at which inhibition is half-maximal. What is called EC50 is the midpoint of the concentration-response curve.

T1 sequence (P23743 with tags, fused parts or gaps): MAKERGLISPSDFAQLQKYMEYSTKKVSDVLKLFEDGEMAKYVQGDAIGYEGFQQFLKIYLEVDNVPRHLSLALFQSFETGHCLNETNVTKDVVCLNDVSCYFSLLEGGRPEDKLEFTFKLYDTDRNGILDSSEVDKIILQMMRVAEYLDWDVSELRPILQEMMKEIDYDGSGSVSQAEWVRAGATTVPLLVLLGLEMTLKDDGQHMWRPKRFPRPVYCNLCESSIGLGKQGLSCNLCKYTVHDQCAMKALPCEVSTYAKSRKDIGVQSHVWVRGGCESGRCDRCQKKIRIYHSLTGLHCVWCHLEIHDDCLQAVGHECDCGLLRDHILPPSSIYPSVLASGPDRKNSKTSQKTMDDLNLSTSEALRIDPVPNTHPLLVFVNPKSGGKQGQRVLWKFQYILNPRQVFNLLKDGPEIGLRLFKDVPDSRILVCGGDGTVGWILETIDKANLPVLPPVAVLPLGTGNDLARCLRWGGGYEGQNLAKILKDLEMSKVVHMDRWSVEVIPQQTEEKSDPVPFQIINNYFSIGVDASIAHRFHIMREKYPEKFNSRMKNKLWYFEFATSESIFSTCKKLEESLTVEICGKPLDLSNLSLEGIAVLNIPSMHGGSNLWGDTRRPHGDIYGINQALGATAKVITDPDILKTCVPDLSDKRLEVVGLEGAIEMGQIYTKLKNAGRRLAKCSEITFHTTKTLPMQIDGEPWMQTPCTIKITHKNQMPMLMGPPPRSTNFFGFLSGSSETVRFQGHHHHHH
T2 sequence (Q13574 with tags, fused parts or gaps isoform Q13574-4): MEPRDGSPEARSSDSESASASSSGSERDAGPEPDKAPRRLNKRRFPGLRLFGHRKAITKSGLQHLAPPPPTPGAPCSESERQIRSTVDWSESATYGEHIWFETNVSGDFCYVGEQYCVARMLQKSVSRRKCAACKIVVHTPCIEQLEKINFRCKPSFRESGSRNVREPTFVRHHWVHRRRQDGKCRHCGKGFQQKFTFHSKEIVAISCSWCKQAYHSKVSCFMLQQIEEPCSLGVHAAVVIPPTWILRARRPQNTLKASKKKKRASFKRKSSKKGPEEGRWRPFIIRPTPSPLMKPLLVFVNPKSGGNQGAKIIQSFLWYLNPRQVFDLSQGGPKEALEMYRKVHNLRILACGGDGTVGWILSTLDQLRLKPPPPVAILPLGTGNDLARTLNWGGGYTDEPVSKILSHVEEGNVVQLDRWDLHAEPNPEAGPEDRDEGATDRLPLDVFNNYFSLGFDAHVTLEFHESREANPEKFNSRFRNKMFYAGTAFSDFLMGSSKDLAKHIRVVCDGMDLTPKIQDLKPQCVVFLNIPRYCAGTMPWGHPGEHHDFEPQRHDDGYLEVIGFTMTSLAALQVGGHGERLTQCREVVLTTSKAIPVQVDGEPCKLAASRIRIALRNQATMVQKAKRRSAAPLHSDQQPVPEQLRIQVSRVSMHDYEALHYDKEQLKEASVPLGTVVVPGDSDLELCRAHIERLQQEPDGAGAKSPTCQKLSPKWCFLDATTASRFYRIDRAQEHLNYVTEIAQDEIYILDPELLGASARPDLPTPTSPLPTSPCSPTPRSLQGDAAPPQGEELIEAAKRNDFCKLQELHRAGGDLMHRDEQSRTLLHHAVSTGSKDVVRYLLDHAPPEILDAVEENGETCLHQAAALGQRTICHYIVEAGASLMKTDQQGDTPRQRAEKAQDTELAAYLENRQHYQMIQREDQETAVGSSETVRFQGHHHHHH
Method for Human venous whole blood: Human Whole Blood IFN-γ Assay
Human venous whole blood (22.5 μL per well), obtained from healthy donors, was pre-treated with compounds for one hour at 37° C. in a humidified 95% air/5% CO2 incubator. The blood was stimulated with 2.5 μL anti-human CD3 and anti-CD28 mAb at a final concentration of 1 μg/mL each for 24 hours at 37° C. IFN-γ in the supernatants was measured using AlphLISA kit (Cat # AL217).

With `C[C@@H]1CN(c2cc(=O)n(C)c3ccc(C#N)nc23)[C@@H](C)CN1Cc1cccc(F)c1F` [Example 286, 8-[(2S,5R)-4-[(2,3-difluorophenyl)methyl]-2,5-dimethylpiperazin-1-yl]-5-methyl-6-oxo-5,6-dihydro-1,5-naphthyridine-2-carbonitrile], the IC50 at human DGKα (liposome (LIPGLO) assay) was found to be 1900 nM; at human DGKζ (liposome (LIPGLO) assay) it was 3200 nM. Besides, the EC50 in the assay with naïve human CD8 T cells (setting [1]) was found to be 370 nM; in the assay on Human venous whole blood (setting [2]), 2200 nM.
For the compound `CC[C@H]1CN(C(c2ccc(F)cc2)c2ncccc2F)[C@H](CC)CN1c1cc(=O)n(C)c2ccc(C#N)nc12` (single isomer, unassigned) [Example 1038], the IC50 worked out at 77 nM on human DGKα (liposome (LIPGLO) assay) and 850 nM at human DGKζ (liposome (LIPGLO) assay). The results for the concentration for a half-maximal effect (EC50) in the assay with naïve human CD8 T cells (setting [3]) and in the assay on Human venous whole blood (setting [3]) were 21 nM and 280 nM, respectively.
Take `Cc1cccc(C)c1CN1C[C@H](C)N(c2cc(=O)n(C)c3ccc(C#N)nc23)C[C@H]1C` [Example 265, 8-[(2S,5R)-4-[(2,6-dimethylphenyl)methyl]-2,5-dimethylpiperazin-1-yl]-5-methyl-6-oxo-5,6-dihydro-1,5-naphthyridine-2-carbonitrile]: the 50% inhibitory concentration (IC50) at human DGKα (liposome (LIPGLO) assay) stood at 23000 nM; on human DGKζ (liposome (LIPGLO) assay), 2600 nM. The results for the EC50 in the assay with naïve human CD8 T cells (setting [1]) and with Human venous whole blood (setting [2]) were 1600 nM and 3800 nM, respectively.
In the same order, the values of `C[C@@H]1CN(c2cc(=O)n(C)c3ccc(C#N)nc23)[C@@H](C)CN1C(c1ccc(OC(F)(F)F)cc1)c1cccc(F)n1` (single isomer, unassigned) [Example 367] are 1300 nM, 2700 nM, 13 nM and 460 nM.
As for `C[C@@H]1CN(c2c(C#N)c(=O)n(C)c3ccc(C#N)nc23)CCN1C(c1cccc(F)c1)c1ccc(F)cn1` (single isomer, unassigned) [Example 925], the values for the IC50 at human DGKα (DGKα liposome (LIPGLO) assay) and on human DGKζ (DGKζ liposome (LIPGLO) assay) were 2500 nM and 2800 nM, respectively. The EC50 in the assay with naïve human CD8 T cells (setting [4]) is 91 nM; in the assay with Human venous whole blood (setting [5]), 710 nM.
Take `Cc1ccc(C(c2ccc(C)c(Cl)c2)N2C[C@H](C)N(c3cc(=O)n(C)c4ccc(C#N)nc34)C[C@H]2C)nc1` (single isomer, unassigned) [Example 373]: the IC50 at human DGKα (liposome (LIPGLO) assay) worked out at 6500 nM; on human DGKζ (liposome (LIPGLO) assay), 740 nM. For the same compound, the results for the EC50 in the assay with naïve human CD8 T cells (setting [1]) and with Human venous whole blood (setting [2]) were 180 nM and 320 nM, respectively.
The matching figures for `C[C@@H]1CN(c2cc(=O)n(C)c3ccc(C#N)nc23)[C@@H](C)CN1C(c1ccc(Cl)cc1)c1ccc(C#N)cc1` (stereo partly drawn) [Example 298, 8-((2S,5R)-4-((4-chlorophenyl)(4-cyanophenyl)methyl)-2,5-dimethylpiperazin-1-yl)-5-methyl-6-oxo-5,6-dihydro-1,5-naphthyridine-2-carbonitrile]: 1500 nM, 2400 nM, 29 nM and 570 nM.
On to `Cc1ccc(C(c2cccc(F)c2)N2C[C@H](C)N(c3cc(=O)n(C)c4ccc(C#N)nc34)C[C@H]2C)nc1` (single isomer, unassigned) [Example 215], for which the IC50 on human DGKα (liposome (LIPGLO) assay) was 660 nM; on human DGKζ (liposome (LIPGLO) assay), 530 nM. For the same compound, the results for the EC50 in the assay on naïve human CD8 T cells (setting [3]) and in the assay with Human venous whole blood (setting [3]) were 33 nM and 2100 nM, respectively.
With `Cc1cccc(C(c2ccc(F)cc2)N2CCN(c3c(C#N)c(=O)n(C)c4ccc(C#N)nc34)C[C@H]2C)n1` (single isomer, unassigned) [Example 906], the figures for the IC50 at human DGKα (DGKα liposome (LIPGLO) assay) and on human DGKζ (DGKζ liposome (LIPGLO) assay) were 1000 nM and 940 nM, respectively. For the same compound, the results for the EC50 in the assay on naïve human CD8 T cells (setting [4]) and in the assay on Human venous whole blood (setting [5]) were 67 nM and 810 nM, respectively.
Turning to `Cc1cccc(C(c2ccc(F)cc2)N2C[C@H](C)N(c3cc(=O)n(C)c4ccc(C#N)nc34)C[C@H]2C)c1` (single isomer, unassigned) [Example 224], the concentration for half-maximal inhibition (IC50) at human DGKα (liposome (LIPGLO) assay) stood at 1500 nM; on human DGKζ (liposome (LIPGLO) assay), 57 nM. The EC50 with naïve human CD8 T cells (setting [3]) was 24 nM; in the assay on Human venous whole blood (setting [3]), 1000 nM.
The matching figures for `C[C@@H]1CN(c2cc(=O)n(C)c3ccc(C#N)nc23)[C@@H](C)CN1C(c1ccc(Cl)cc1)c1ncccc1F` (single isomer, unassigned) [Example 190]: 220 nM, 1100 nM, 170 nM and 700 nM.
Regarding `Cc1nccc(C(c2ccc(F)cc2)N2C[C@H](C)N(c3cc(=O)n(C)c4ccc(C#N)nc34)C[C@H]2C)n1` (single isomer, unassigned) [Example 389], the IC50 was 2200 nM at human DGKα (liposome (LIPGLO) assay) and 1100 nM on human DGKζ (liposome (LIPGLO) assay). Moreover, the figures for the EC50 with naïve human CD8 T cells (setting [1]) and in the assay on Human venous whole blood (setting [3]) were 25 nM and 280 nM, respectively.
Turning to `CC(c1ccc(C(F)(F)F)cc1F)N1C[C@H](C)N(c2cc(=O)n(C)c3ccc(C#N)nc23)C[C@H]1C` (single isomer, unassigned) [Example 434], the IC50 was 1800 nM on human DGKα (liposome (LIPGLO) assay) and 700 nM at human DGKζ (liposome (LIPGLO) assay). The EC50 was 5.7 nM in the assay with naïve human CD8 T cells (setting [1]) and 600 nM with Human venous whole blood (setting [2]).
Consider `C[C@@H]1CN(c2cc(=O)n(C)c3ccc(C#N)nc23)[C@@H](C)CN1C(c1ccccc1)c1ccc(OC(F)(F)F)cc1` (single isomer, unassigned) [Example 222], for which the 50% inhibitory concentration (IC50) on human DGKα (liposome (LIPGLO) assay) was found to be 290 nM; on human DGKζ (liposome (LIPGLO) assay), 710 nM. Further, the 50% effective concentration (EC50) with naïve human CD8 T cells (setting [3]) is 46 nM; in the assay with Human venous whole blood (setting [3]), 680 nM.
As to `Cc1ccc(C(c2cccc(F)n2)N2C[C@H](C)N(c3cc(=O)n(C)c4ccc(C#N)nc34)C[C@H]2C)cc1` (stereo partly drawn) [Example 476, 8-((2S,5R)-4-((6-fluoropyridin-2-yl)(p-tolyl)methyl)-2,5-dimethylpiperazin-1-yl)-5-methyl-6-oxo-5,6-dihydro-1,5-naphthyridine-2-carbonitrile], the IC50 on human DGKα (liposome (LIPGLO) assay) is 940 nM; at human DGKζ (liposome (LIPGLO) assay), 300 nM. In addition, the values for the EC50 in the assay on naïve human CD8 T cells (setting [1]) and in the assay with Human venous whole blood (setting [2]) were 160 nM and 630 nM, respectively.
In the case of `C[C@@H]1CN(c2cc(=O)n(C)c3ccc(C#N)nc23)[C@@H](C)CN1C(c1ccc(OC(F)(F)F)cc1)c1cccc(F)n1` (single isomer, unassigned) [Example 368], the IC50 came to 1700 nM at human DGKα (liposome (LIPGLO) assay) and 2500 nM on human DGKζ (liposome (LIPGLO) assay). Besides, the EC50 was 10 nM with naïve human CD8 T cells (setting [3]) and 460 nM with Human venous whole blood (setting [3]).
For `C[C@@H]1CN(c2cc(=O)n(C)c3ccc(C#N)nc23)[C@@H](C)CN1Cc1c(F)cccc1C#N` [Example 269, 8-[(2S,5R)-4-[(2-cyano-6-fluorophenyl)methyl]-2,5-dimethylpiperazin-1-yl]-5-methyl-6-oxo-5,6-dihydro-1,5-naphthyridine-2-carbonitrile], the concentration for half-maximal inhibition (IC50) on human DGKα (liposome (LIPGLO) assay) was 78000 nM; at human DGKζ (liposome (LIPGLO) assay), 240000 nM. The results for the EC50 with naïve human CD8 T cells (setting [1]) and in the assay with Human venous whole blood (setting [2]) were 1200 nM and 8800 nM, respectively.
The matching figures for `C[C@@H]1CN(c2cc(=O)n(C)c3ccc(C#N)nc23)[C@@H](C)CN1C(c1ccc(F)cc1)c1ccc(C(F)(F)F)cc1` (stereo partly drawn) [Example 294, 8-[(2S,5R)-4-[(4-fluorophenyl)[4-(trifluoromethyl)phenyl]methyl]-2,5-dimethylpiperazin-1-yl]-5-methyl-6-oxo-5,6-dihydro-1,5-naphthyridine-2-carbonitrile]: 190 nM, 330 nM, 20 nM and 560 nM.
Regarding `C[C@@H]1CN(c2cc(=O)n(C)c3ccc(C#N)nc23)[C@@H](C)CN1C(c1ccc(Cl)cc1)c1ccc(Cl)cn1` (single isomer, unassigned) [Example 201], the IC50 was 450 nM on human DGKα (liposome (LIPGLO) assay) and 790 nM at human DGKζ (liposome (LIPGLO) assay). Also, the concentration for a half-maximal effect (EC50) in the assay with naïve human CD8 T cells (setting [3]) was found to be 31 nM; in the assay on Human venous whole blood (setting [2]) it was 500 nM.
With `C[C@@H]1CN(c2cc(=O)n(C)c3ccc(C#N)nc23)[C@@H](C)CN1C(c1ccccc1)c1cccc(F)c1` (stereo partly drawn) [Example 296, 8-[(2S,5R)-4-[(3-fluorophenyl)(phenyl)methyl]-2,5-dimethylpiperazin-1-yl]-5-methyl-6-oxo-5,6-dihydro-1,5-naphthyridine-2-carbonitrile], the results for the IC50 at human DGKα (liposome (LIPGLO) assay) and at human DGKζ (liposome (LIPGLO) assay) were 630 nM and 900 nM, respectively. The EC50 with naïve human CD8 T cells (setting [1]) was 400 nM; in the assay with Human venous whole blood (setting [2]) it was 1200 nM.
For the compound `C[C@@H]1CN(c2cc(=O)n(C)c3ccc(C#N)nc23)[C@@H](C)CN1C(c1ccc(Cl)cc1)c1cccc(F)n1` (single isomer, unassigned) [Example 196], the results for the IC50 on human DGKα (liposome (LIPGLO) assay) and on human DGKζ (liposome (LIPGLO) assay) were 1300 nM and 3000 nM, respectively. The EC50 in the assay with naïve human CD8 T cells (setting [3]) turned out to be 47 nM; with Human venous whole blood (setting [3]), 1400 nM.
For `COC[C@@H]1CN(c2cc(=O)n(C)c3ccc(C#N)nc23)[C@@H](C)CN1C(c1ccc(C)cc1)c1ccc(C)cc1` [Example 1156], the IC50 worked out at 2500 nM on human DGKα (liposome (LIPGLO) assay) and 440 nM on human DGKζ (liposome (LIPGLO) assay). Also, the EC50 with naïve human CD8 T cells (setting [1]) turned out to be 19 nM; in the assay with Human venous whole blood (setting [2]), 340 nM.
The matching figures for `CC[C@@H]1CN(c2cc(=O)n(C)c3ccc(C#N)nc23)[C@@H](C)CN1C(c1ccc(F)cc1)c1ccc(Cl)cc1` (some centres unmarked) [Example 1100]: 390 nM, 370 nM, 4.6 nM and 120 nM.

These data come from US10669272B2, “Substituted naphthyridinone compounds useful as T cell activators” (BRISTOL-MYERS SQUIBB COMPANY, priority 2018, dated 2020).
